Experimental data as given in patent US11091511B2, “Panaxdiol-type ginsenoside derivative, preparation method therefor and use thereof” (ARMY MEDICAL UNIVERSITY, priority 2016, dated 2021).
Marks after values point to notes of the source that are not given here.

How the values were obtained:
apoE−/− mice [1] = assay: Blood lipids (LDL-C, HDL-C) in apoE-/- mice on high-fat diet; assay type: in vivo, mouse; conditions: apoE-/- mice serum, intragastric 15 weeks, compounds 30 mg/(kg·d), simvastatin 10 mg/(kg·d), x ± s; for HDL-C: n = 5, saline control 3.74 ± 0.62; for LDL-C: n = 5, saline control 7.33 ± 1.03
Source text: The effects of the compounds prepared in Examples 1-30 of the present invention on the percentages of areas of atherosclerotic plaque formation to the area of the entire artery in apoE−/− mice with a high-fat diet and the levels of low-density lipoprotein cholesterol and the levels of high-density lipoprotein, the specific steps are as follows:
1. animals: 160 ten-week-old, healthy and clean-grade apoE−/− mice (purchased from Peking University Experimental Animal Center), males, weight: 22-25 g, were housed in separate cages in a sterile laminar feeding room and fed freely. The mice were fed by a high-fat diet (conventional feed+0.15% cholesterol+21% lard) for 25 weeks, the room temperature was kept at 24° C., relative humidity: 50%, illumination time 7:30-19:30.
2. Grouping, administration method:
after 10 weeks of feeding, the animals were divided into the following 32 groups (n=5) by weight in a balanced and random manner, and killed 15 weeks after administration.
Normal saline control group: normal saline, intragastric administration.
Positive control group: simvastatin 10 mg/(kg·d), intragastric administration.
The compound groups prepared in Examples 1-30 of the present invention (30 groups in total): each was intragastric administered 30 mg/(kg·d).
(2) Determination of the levels of total cholesterol (TC), low-density cholesterol lipoprotein (LDL-C) and high-density lipoprotein cholesterol (HDL-C): using ROCHE 7060 automatic biochemical analyzer for the determination.
Data were expressed as x±s, and SPSS 10.0 line single-factor analysis of variance was performed among groups, a significant difference was indicated when p<0.05.

[2] = test system: RAW264.7 cell-derived foam cells; assay: Formation of RAW264.7 cell-derived foam cells (ox-LDL, oil red O, absorbance 490 nm); assay type: cell-based, mouse; conditions: 48 hours, model group = 100%, x ± s, n = 3
Experimental: The effects of the compounds prepared in Examples 1-30 of the present invention on the formation of RAW264.7 cell-derived foam cells, the specific steps are as follows:
1. Cell culture and foam cell model establishment:
RAW264.7 cells were cultured in DMEM culture medium with high glucose level (GIBCO) to a cell concentration of 1×10^6, planted in a 6-well plate, and 60 mg/L of ox-LDL (oxidized modified low-density lipoprotein, Peking Union Medical College) was added, foam cells were obtained after 48 hours of incubation.
2. Grouping and index detection:
The obtained foam cells were divided into 61 groups, 3 well plates were included in one group. After the treatment by adding the drugs (100 μL/well) for 48 hours, the medium was discarded, and after oil red 0 staining, the excess amount of oil red 0 was washed away. The cells were dissolved in isopropanol and the absorbance values were measured at 490 nm. The OD value of the model group was 100%, and the OD value of each group corrected by the number of cells was compared with the model group to obtain the ratio of intracellular lipid content. The larger the value, the more intracellular lipids, the higher the degree of formation of foam cells.
Normal saline control group: normal saline
Low dose groups of the compounds prepared in Examples 1-30 of the present invention:
10 μmol/L (solvents were normal saline).
High dose groups of compounds prepared in Examples 1-30 of the present invention: 30 μmol/L (solvents were normal saline).
Data were expressed as x±s, and SPSS 10.0 line single-factor analysis of variance was performed amoung groups, a significant difference was indicated when p<0.05.

RAW264.7 cells = assay: RAW264.7 cell survival rate by CCK8 method; assay type: cell-based, mouse; conditions: compound 10 prnol/L, 0.1% DMSO, CCK8, x ± s, n = 3, normal saline control = 1
Experimental: In order to further verify the toxicities of the compounds prepared in Examples 1-30 of the present invention, the mouse macrophage cell line RAW264.7 was cultured, and the compounds prepared in Examples 1-30 of the invention were prepared to a concentration of […] using culture medium, wherein the solvent was normal saline, the co-solvent was dimethyl sulfoxide (DMSO, the final concentratoin was 0.1%), and a 0.1% DMSO saline control group was provided. The cell survival rate was determined by CCK8 method. The data were expressed as x±s. SPSS 10.0 line single-factor analysis of variance was performed among groups. The difference was significant when p<0.05.

TNF-α = assay: Local TNF-α level in the arteries of apoE-/- mice (Millipore liquid phase chip); assay type: in vivo, mouse; conditions: high-fat diet, intragastric 15 weeks, compounds 30 mg/(kg·d), simvastatin 10 mg/(kg·d), x ± s, n = 5, saline control 25.58 ± 6.44
Source text: (§1) The effects of the compounds prepared in Examples 1-30 of the present invention on the percentages of areas of atherosclerotic plaque formation to the area of the entire artery in apoE−/− mice with a high-fat diet and the levels of low-density lipoprotein cholesterol and the levels of high-density lipoprotein, the specific steps are as follows: 1. animals: 160 ten-week-old, healthy and clean-grade apoE−/− mice (purchased from Peking University Experimental Animal Center), males, weight: 22-25 g, were housed in separate cages in a sterile laminar feeding room and fed freely. The mice were fed by a high-fat diet (conventional feed+0.15% cholesterol+21% lard) for 25 weeks, the room temperature was kept at 24° C., relative humidity: 50%, illumination time 7:30-19:30. 2. Grouping, administration method: after 10 weeks of feeding, the animals were divided into the following 32 groups (n=5) by weight in a balanced and random manner, and killed 15 weeks after administration. Normal saline control group: normal saline, intragastric administration. Positive control group: simvastatin 10 mg/(kg·d), intragastric administration. The compound groups prepared in Examples 1-30 of the present invention (30 groups in total): each was intragastric administered 30 mg/(kg·d). (3) Determination of TNF-α level: Millipore liquid phase chip method was used for the determination (Mcytomag-70K-3, Mouse Cytokine/Chemokine Magnetic Bead Panel). Data were expressed as x±s, and SPSS 10.0 line single-factor analysis of variance was performed among groups, a significant difference was indicated when p<0.05.

apoE−/− mice [3] = assay: Atherosclerotic plaque area to total aortic area in apoE-/- mice on high-fat diet (Sudan IV staining); assay type: in vivo, mouse; conditions: intragastric 15 weeks, compounds 30 mg/(kg·d), simvastatin 10 mg/(kg·d), x ± s, n = 5, saline control 14.67 ± 3.58
Source text: as §1, with “(1) Analysis” for “(3) Determination”, “the area of atherosclerotic plaque and its percentage to total area: after the animals were killed, the aortas were separated, from the roots of the aortas to the terminal bifurcations of the abdominal aortas. After formalin fixation, the aortas were stained with Sudan IV, the red stained parts were the areas of atherosclerotic lesions. The percentage of the area of the lesion area to total area” for “TNF-α level: Millipore liquid phase chip method”, “calculated using Image Pro Plus 5.0 software.” for “used for the determination (Mcytomag-70K-3, Mouse Cytokine/Chemokine Magnetic Bead Panel).”

Structure (SMILES)	HDL-C (apoE−/− mice [1])	LDL-C (apoE−/− mice [1])	Foam cell formation (%) ([2]; dose 10 μmol/L)	Foam cell formation (%) ([2]; dose 30 μmol/L)	Cell Survival Rate (RAW264.7 cells)	TNF-α level (ng/g) (TNF-α)	Plaque area/total aorta area (%) (apoE−/− mice [3])
COC(=O)CC[C@H](NCCC[C@](C)(O[C@H]1O[C@H](COC(C)=O)[C@@H](OC(C)=O)[C@H](OC(C)=O)[C@H]1OC(C)=O)C1CC[C@]2(C)[C@@H]1C(OC(C)=O)CC1[C@@]3(C)CC[C@H](OC(C)=O)C(C)(C)C3CC[C@]12C)C(=O)OC (some centres unmarked) [Compound 8]	5.63 ± 0.84 ^a mmol/L	4.34 ± 1.19 ^a mmol/L	73 ± 16 ^a %	51 ± 17 ^a %	0.82 ± 0.06	12.67 ± 3.11 ^a ng/g	9.31 ± 3.58 ^a %
COC(=O)CNCCC[C@](C)(O[C@H]1O[C@H](COC(C)=O)[C@@H](OC(C)=O)[C@H](OC(C)=O)[C@H]1OC(C)=O)C1CC[C@]2(C)[C@@H]1C(OC(C)=O)CC1[C@@]3(C)CC[C@H](OC(C)=O)C(C)(C)C3CC[C@]12C (some centres unmarked) [Compound 9]	4.41 ± 0.67 ^a mmol/L	6.84 ± 0.85 mmol/L	79 ± 23%	65 ± 17 ^a %	0.85 ± 0.07	12.85 ± 4.17 ^a ng/g	10.55 ± 2.19 ^a %
CCOC(=O)CCNCCC[C@](C)(O[C@H]1O[C@H](COC(C)=O)[C@@H](OC(C)=O)[C@H](OC(C)=O)[C@H]1OC(C)=O)C1CC[C@]2(C)[C@@H]1C(OC(C)=O)CC1[C@@]3(C)CC[C@H](OC(C)=O)C(C)(C)C3CC[C@]12C (some centres unmarked) [Compound 10]	4.50 ± 0.94 ^a mmol/L	6.54 ± 1.06 mmol/L	69 ± 18 ^a %	45 ± 21 ^a %	0.82 ± 0.13	11.66 ± 2.65 ^a ng/g	8.52 ± 3.25 ^a %
CCOC(=O)C(NCCC[C@](C)(O[C@H]1O[C@H](COC(C)=O)[C@@H](OC(C)=O)[C@H](OC(C)=O)[C@H]1OC(C)=O)C1CC[C@]2(C)[C@@H]1C(OC(C)=O)CC1[C@@]3(C)CC[C@H](OC(C)=O)C(C)(C)C3CC[C@]12C)C(=O)OCC (some centres unmarked) [Compound 11]	4.93 ± 0.58 ^a mmol/L	6.59 ± 1.56 mmol/L	72 ± 14 ^a %	65 ± 15 ^a %	0.84 ± 0.12	12.33 ± 5.81 ^a ng/g	9.68 ± 3.52 ^a %
COC(=O)[C@H](Cc1ccccc1)NCCC[C@](C)(O[C@H]1O[C@H](COC(C)=O)[C@@H](OC(C)=O)[C@H](OC(C)=O)[C@H]1OC(C)=O)C1CC[C@]2(C)[C@@H]1C(OC(C)=O)CC1[C@@]3(C)CC[C@H](OC(C)=O)C(C)(C)C3CC[C@]12C (some centres unmarked) [Compound 12]	4.44 ± 0.83 ^a mmol/L	5.27 ± 1.74 ^a mmol/L	84 ± 15%	68 ± 21 ^a %	0.87 ± 0.16	18.27 ± 5.24 ^a ng/g	10.23 ± 3.54 ^a %
COC(=O)[C@@H](Cc1ccc(O)cc1)NCCC[C@](C)(O[C@H]1O[C@H](COC(C)=O)[C@@H](OC(C)=O)[C@H](OC(C)=O)[C@H]1OC(C)=O)C1CC[C@]2(C)[C@@H]1C(OC(C)=O)CC1[C@@]3(C)CC[C@H](OC(C)=O)C(C)(C)C3CC[C@]12C (some centres unmarked) [Compound 13]	5.29 ± 1.18 ^a mmol/L	5.07 ± 0.99 ^a mmol/L	71 ± 14 ^a %	47 ± 23 ^a %	0.85 ± 0.12	15.65 ± 6.74 ^a ng/g	9.44 ± 3.24 ^a %
COC(=O)[C@H](Cc1c[nH]cn1)NCCC[C@](C)(O[C@H]1O[C@H](COC(C)=O)[C@@H](OC(C)=O)[C@H](OC(C)=O)[C@H]1OC(C)=O)C1CC[C@]2(C)[C@@H]1C(OC(C)=O)CC1[C@@]3(C)CC[C@H](OC(C)=O)C(C)(C)C3CC[C@]12C (some centres unmarked) [Compound 14]	4.39 ± 0.59 ^a mmol/L	5.58 ± 1.11 ^a mmol/L	78 ± 18 ^a %	66 ± 16 ^a %	0.83 ± 0.06	16.92 ± 5.04 ^a ng/g	9.34 ± 3.01 ^a %
COC(=O)[C@H](CC1CNc2ccccc21)NCCC[C@](C)(O[C@H]1O[C@H](COC(C)=O)[C@@H](OC(C)=O)[C@H](OC(C)=O)[C@H]1OC(C)=O)C1CC[C@]2(C)[C@@H]1C(OC(C)=O)CC1[C@@]3(C)CC[C@H](OC(C)=O)C(C)(C)C3CC[C@]12C (some centres unmarked) [Compound 15]	4.12 ± 0.82 ^a mmol/L	6.54 ± 1.36 mmol/L	68 ± 12 ^a %	56 ± 22 ^a %	0.88 ± 0.04	16.07 ± 3.67 ^a ng/g	10.22 ± 2.19 ^a %
